The subject of one experiment is alpha-1,2-mannosidase I. Briefly: Mannosidase activity assay in yeast microsomes, with or without DMJ. The experiment is classed as biochemical, C. Elegans. As to conditions: 120 μM DMJ, triplicate (FIG. 6). On the procedure: (§1) Mannosidase activity is measured by incubating for 4 hours at 37° C., with 4 mM of p-nitrophenyl-α-D-mannopyranoside with 100-200 μg of proteins (from total proteins or sub-cellular fractions) in 0.1 M of PBS, pH 6.5+/−120 μM DMJ (alpha-1,2-mannosidase I inhibitor) +/−12 μM SW (specific inhibitor of mannosidase II). Absorbance is measured at 405 nm.
The Adèle and Edgar yeasts, positive for the insertion of the expression cassette of mannosidase I in the gene URA3, are tested for their mannosidase I biochemical activity. […] The experiment was conducted in triplicate. We may observe in the wild S. cerevisiae and S. pombe strains, a mannosidase activity non-inhibited by DMJ.

Another experiment has as its target T1, mannosidase II (Mus musculus, UniProt P27046, V673G).
T1 construct: Amplification of a 3,453 by fragment; expressed in transfected cells; host or cells: S. cerevisiae and S. pombe with the TEF-promoter cassette integrated in LEU2 (strains Anaïs / Enrique); Golgi fractions
T1 sequence (P27046 1-1150 V673G): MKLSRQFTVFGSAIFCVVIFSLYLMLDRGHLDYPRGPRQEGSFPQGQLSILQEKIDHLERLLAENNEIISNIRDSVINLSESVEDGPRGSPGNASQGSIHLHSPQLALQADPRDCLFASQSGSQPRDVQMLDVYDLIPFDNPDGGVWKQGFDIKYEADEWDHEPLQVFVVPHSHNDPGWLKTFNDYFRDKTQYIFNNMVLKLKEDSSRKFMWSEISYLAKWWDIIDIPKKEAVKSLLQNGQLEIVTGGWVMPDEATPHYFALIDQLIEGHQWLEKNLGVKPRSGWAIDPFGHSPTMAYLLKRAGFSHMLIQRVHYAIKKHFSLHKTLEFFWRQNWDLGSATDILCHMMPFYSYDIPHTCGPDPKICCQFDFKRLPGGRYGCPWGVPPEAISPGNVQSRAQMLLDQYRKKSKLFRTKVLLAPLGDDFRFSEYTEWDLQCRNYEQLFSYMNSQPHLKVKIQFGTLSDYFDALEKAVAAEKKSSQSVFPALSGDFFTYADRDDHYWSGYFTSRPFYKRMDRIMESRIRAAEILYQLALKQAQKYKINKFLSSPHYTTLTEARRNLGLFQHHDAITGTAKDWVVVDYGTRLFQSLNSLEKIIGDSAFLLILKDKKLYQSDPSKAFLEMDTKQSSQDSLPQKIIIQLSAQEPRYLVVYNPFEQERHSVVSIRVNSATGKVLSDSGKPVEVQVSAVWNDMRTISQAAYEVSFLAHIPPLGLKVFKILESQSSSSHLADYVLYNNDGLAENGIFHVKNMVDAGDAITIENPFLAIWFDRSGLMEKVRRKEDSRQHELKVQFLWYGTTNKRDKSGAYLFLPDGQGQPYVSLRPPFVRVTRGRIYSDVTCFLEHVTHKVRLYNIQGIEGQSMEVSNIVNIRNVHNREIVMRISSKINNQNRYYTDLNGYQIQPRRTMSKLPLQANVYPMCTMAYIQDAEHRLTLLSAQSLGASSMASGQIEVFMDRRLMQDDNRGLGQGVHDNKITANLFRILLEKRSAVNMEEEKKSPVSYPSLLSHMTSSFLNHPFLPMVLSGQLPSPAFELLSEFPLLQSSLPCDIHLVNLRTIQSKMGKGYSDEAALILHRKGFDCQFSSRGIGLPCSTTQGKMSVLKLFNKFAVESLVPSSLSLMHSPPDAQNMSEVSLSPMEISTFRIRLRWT
Kind of experiment: Mannosidase activity assay in Golgian yeast fractions, with or without swainsonine. The format is biochemical. The settings on record: 12 μM SW (FIG. 9). On the procedure: as §1
According to FIG. 9, we may observe in the parent S. cerevisiae and S. pombe strains a mannosidase activity insensitive to the inhibitory action of swainsonine. […] Further as, the measured mannosidase II activity is detected in Golgian yeast fractions, we may infer that this enzyme is properly expressed in the secretion route at the Golgian system.

With `OC[C@H]1NC[C@@H](O)[C@@H](O)[C@@H]1O` [DMJ, deoxymannojirimycin], the “inhibition of mannosidase activity by DMJ” value is reported as “significant inhibition” in the experiment on alpha-1,2-mannosidase I (selected S. cerevisiae and S. pombe strains with mannosidase I cassette); “non-inhibited” in the experiment with alpha-1,2-mannosidase I (wild S. cerevisiae and S. pombe strains).

`O[C@H]1[C@H]2[C@H](O)CCCN2C[C@H]1O` [swainsonine]: the “inhibition of mannosidase activity by swainsonine” value is “insensitive” at mannosidase II (parent S. cerevisiae and S. pombe strains); “significant inhibition” on mannosidase II (selected S. cerevisiae and S. pombe strains with mannosidase II cassette).

The values above are taken from patent publication US8574871B2, “Genetically modified yeasts for the production of homogenous glycoproteins” (GLYCODE, priority 2007, dated 2013).
